Literature values, collected in patent US20020164314A1, “Ovarian hormone induced neural stem cell increase” (Neurostasis, Inc., priority 2001, published 2002).

Legend:
[1] = system: proliferating cells in the dentate gyrus
[2] = system: development of female characteristics in animals
[3] = corticosterone, Alonso 2000, adult rats

C[C@]12C[C@H](O)[C@H]3[C@@H](CCC4=CC(=O)CC[C@@]43C)[C@@H]1CC[C@@H]2C(=O)CO [corticosterone]
cell proliferation in the dentate gyrus [1, 3]: dramatically decreases
effect on the SVZ proliferating cells (SVZ proliferating cells; [3]): no effect

C[C@]12CC[C@@H]3c4ccc(O)cc4CC[C@H]3[C@@H]1CC[C@@H]2O [β-estradiol]
estrogenic potency relative to estriol ([2]; ratio versus estriol): 80 times
estrogenic potency relative to estrone ([2]; ratio versus estrone): 12 times

Estrogen
number of new neurons in the dentate gyrus ([1]; Tanapat et al. 1999, adult female): transient increase
proliferation in the dentate gyrus ([1]; Tanapat et al. 1999, adult female rat): stimulate proliferation
mitotic activity in the subventricular zone (SVZ proliferating cells; Tanapat et al. 1999): no mitotic activity
